Our source for the TGI values is PubChem BioAssay (NCI).

Among the test systems are DLD-1 colon; DMS 114 small cell lung; DMS 273 small cell lung; HOP-18 NSCLC; HOP-62 NSCLC; KM20L2 colon; LXFL 529 NSCLC; M19-MEL melanoma; RXF-631 renal; SNB-78 CNS; XF 498 CNS.
What all share (assay): DTP human tumour cell line panel, 48 h

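96-well plates; 48 h exposure; 5 concentrations. Endpoints by linear interpolation between flanking doses. Not reached: highest tested concentration assigned. The concentration for full growth arrest is given as TGI.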 Bounds are passed on as bounds.

As for `CCOC(=O)C1=C(OC(OCC)C(CC)[Se]c2ccccc2)CCC1` (stereo unspecified), the TGI with DLD-1 colon was 45.4 µM; in the test on DMS 114 small cell lung it was 15.6 µM; in the test with DMS 273 small cell lung, 29.2 µM; with HOP-18 NSCLC, 69.5 µM; in the test on HOP-62 NSCLC, > 100 µM; in the test on KM20L2 colon, > 100 µM. Besides, the TGI is 77 µM in the test with LXFL 529 NSCLC; 30.8 µM in the test with M19-MEL melanoma; 32.9 µM with RXF-631 renal; 97.4 µM with SNB-78 CNS; 46.8 µM in the test with XF 498 CNS.

Turning to `CN1CCc2ccccc2C(C(=O)c2ccc3c(c2)OCO3)C1=O` (stereo unspecified), the TGI in the test with DLD-1 colon, in the test with DMS 114 small cell lung, in the test on DMS 273 small cell lung, in the test on HOP-18 NSCLC, in the test with HOP-62 NSCLC and in the test on KM20L2 colon was > 100 µM in each case. The TGI in the test on LXFL 529 NSCLC, in the test on M19-MEL melanoma, in the test with RXF-631 renal and with XF 498 CNS was > 100 µM each time.

Take `C=C1C2=C(CCCC2)C(=O)OC12CCCCC2`: the TGI in the test on DLD-1 colon, in the test on DMS 114 small cell lung, in the test with DMS 273 small cell lung, with HOP-18 NSCLC, with HOP-62 NSCLC and with KM20L2 colon was > 100 µM in each case. In addition, the TGI in the test with LXFL 529 NSCLC, in the test on M19-MEL melanoma, in the test on RXF-631 renal and in the test with XF 498 CNS was > 100 µM throughout.

For the molecule `COc1ccc2[nH]c3c(c2c1)[C@H]1CCC(C(C)(C)C)C[C@H]1[C@H]1C(=O)N(c2ccccc2)C(=O)[C@@H]31` (stereo partly specified), the TGI is > 96.2 µM in the test with DLD-1 colon; > 76.7 µM with DMS 114 small cell lung; > 100 µM with DMS 273 small cell lung; 99.6 µM in the test with HOP-18 NSCLC; 38.3 µM in the test on HOP-62 NSCLC; > 100 µM with KM20L2 colon. Besides, the TGI in the test with LXFL 529 NSCLC is > 100 µM; with M19-MEL melanoma, > 94.2 µM; in the test with RXF-631 renal it was 57.5 µM; in the test on XF 498 CNS it was 31 µM.

`CCCCOC/N=C(/N)NC#N`: the TGI in the test on DLD-1 colon, in the test on DMS 114 small cell lung, in the test on DMS 273 small cell lung, in the test with HOP-18 NSCLC, with HOP-62 NSCLC and in the test with KM20L2 colon was > 100 µM each time. Besides, the TGI in the test on LXFL 529 NSCLC, in the test with RXF-631 renal, in the test with SNB-78 CNS and in the test on XF 498 CNS was > 100 µM throughout.

As to `CCCc1cc(OC(=O)c2c(O)cc(OC)cc2CCC)cc(O)c1C(=O)O`, the TGI in the test on DLD-1 colon was > 100 µM; in the test on DMS 114 small cell lung, 56 µM; with DMS 273 small cell lung, 95.7 µM; with HOP-62 NSCLC, 35.6 µM; with KM20L2 colon, > 100 µM; with LXFL 529 NSCLC it was 62.9 µM. Besides, the TGI is > 100 µM in the test on M19-MEL melanoma, 63.8 µM with RXF-631 renal, 64.1 µM in the test on SNB-78 CNS and 74.4 µM in the test on XF 498 CNS.
